Type: in vitro ADME, hairless mice (MF1 hr/hr Ola/Hsd)
Details: MF1 hr/hr Ola/Hsd (hairless), mouse, 24 h
Text: The percutaneous resorption of azelaic acid was examined from hydrogel formulations according to the invention in comparison to Skinoren^(R) cream. The purpose of the study was to describe the bioavailability of azelaic acid in the skin, the penetration of azelaic acid through the skin and the dermal metabolism of azelaic acid. In this respect, various preparations that contain ^14C-labeled azelaic acid were applied in the in vitro model of the FRANZ diffusion chamber on the intact complete skin of hairless mice (MF1 hr/hr Ola/Hsd; supplier: Winkelmann, Germany). An amount of 10 to 15 mg of the following compositions was applied to a skin area of 2 cm^2:
The time behavior of the ^14C-azelaic acid was measured in the acceptor medium (Hepes Hanks Balanced Salt Solution: HHBSS), which flows along under the skin, at two-hour intervals over a period of 24 hours. In addition, at the end of each experiment, the radioactivity on the skin surface, in the stratum corneum and in the remaining skin was determined. […]
The ^14C-azelaic acid found in the skin at the end of the experiment was metabolized only to a proportion of 3 to 11%. Therefore, the data on the radioactivity in the skin can virtually be equated to the concentration of unchanged azelaic acid.

With `O=C(O)CCCCCCCC(=O)O` [^14C-azelaic acid, azelaic acid] the “proportion of 14C-azelaic acid found in the skin that was metabolized” value was 3 to 11%.
